Results reported in patent US10383894B2, “Human medicinal treatment using salt of peroxymonosulfuric acid” (LuTran Industries, Inc., priority 2010, dated 2019).

What was measured:
Type in all cases: in vivo, human
bronchitis = experiment: Treatment of persons with bronchitis with the Medicine (Examples 12-14); conditions: Example 13: prior treatment, no dose given
From the text: (§1) Given below are examples of using the medicinal drug of type I/II for treating allergic rhinitis, osteoarthritis, gouty arthritis, bronchitis, hemorrhoids, urticaria, toothache, tinea pedis, acute viral nasopharyngitis, herpes simplex, dandruff, itching, bromhidrosis, and vaginitis. The formulation of the drug of type I/II used in these examples was the preferred formulation, mentioned above, in which the drug was formed with potassium hydrogen peroxymonosulfate as the active oxygen-releasing material, sodium chloride as the inorganic halide, sodium hexametaphosphate as the alkali metal phosphate, sulfamic acid, malic acid as the non-reducing organic acid, and sodium dodecylbenzene sulfonate as the surfactant at approximately the typical mass percentages mentioned above. A formulation approximating this formulation is commercially available in the product Virkon. This formulation of the drug of type I/II is referred to below as the “Medicine”. […]

gouty arthritis = experiment: Treatment of persons with gouty arthritis with the Medicine (Examples 9-11); conditions: no dose given; for patient-reported outcome of previously tried treatments: Example 11: prior treatment
From the text: Given below are examples of using the medicinal drug of type I/II for treating allergic rhinitis, osteoarthritis, gouty arthritis, bronchitis, hemorrhoids, urticaria, toothache, tinea pedis, acute viral nasopharyngitis, herpes simplex, dandruff, itching, bromhidrosis, and vaginitis. The formulation of the drug of type I/II used in these examples was the preferred formulation, mentioned above, in which the drug was formed with potassium hydrogen peroxymonosulfate as the active oxygen-releasing material, sodium chloride as the inorganic halide, sodium hexametaphosphate as the alkali metal phosphate, sulfamic acid, malic acid as the non-reducing organic acid, and sodium dodecylbenzene sulfonate as the surfactant at approximately the typical mass percentages mentioned above. A formulation approximating this formulation is commercially available in the product Virkon. This formulation of the drug of type I/II is referred to below as the “Medicine”.
The Medicine for each person infected with allergic rhinitis, osteoarthritis, gouty arthritis, bronchitis, hemorrhoids, urticaria, toothache, tinea pedis, acute viral nasopharyngitis, herpes simplex, dandruff, itching, bromhidrosis, and vaginitis is provided for topical, intranasal, oral, or/and injection administration 1-12 times per day, preferably 1-8 times per day, more preferably 1-6 times per day, typically 1-4 times per day, in liquid form at a dosage of 0.00001-5%, preferably 0.001-3%, more preferably 0.1-2%, typically 0.5-1%, for a time of contact of 1 minute-12 hours, preferably 1 minute-6 hours, more preferably 1 minute-2 hours, typically 1-30 minutes . The treatment period in each in each of the following examples is normally 1-12 months, preferably 1-6 months, more preferably 1-3 months, typically 1-30 days.
A retired adult had gouty arthritis for 10 years. The […] reported that they were in excruciating pain on random days and that previously attempted treatments for the pain were unsuccessful. […]

osteoarthritis = experiment: Treatment of persons with osteoarthritis with the Medicine (Examples 6-8); conditions: Example 6: prior treatment, no dose given
From the text: as §1

itching = experiment: Treatment of persons with itching with the Medicine (Examples 41-43); conditions: no dose given
From the text: as §1

vaginitis = experiment: Treatment of persons with vaginitis with the Medicine (Examples 48-50); conditions: no dose given
From the text: as §1

dandruff = experiment: Treatment of persons with dandruff with the Medicine (Examples 37-40); conditions: Example 37: prior treatment, (some of) these decreased the amount of dandruff
From the text: Given below are examples of using the medicinal drug of type I/II for treating allergic rhinitis, osteoarthritis, gouty arthritis, bronchitis, hemorrhoids, urticaria, toothache, tinea pedis, acute viral nasopharyngitis, herpes simplex, dandruff, itching, bromhidrosis, and vaginitis. […] A formulation approximating this formulation is commercially available in the product Virkon. This formulation of the drug of type I/II is referred to below as the “Medicine”.
The Medicine was provided to […] as a 1% solution for topical administration by scrubbing the Medicine into their scalp and hair for 5 minutes and then washing their scalp and hair. The […] reported that they administered the Medicine to themself in the foregoing manner 4 times a week for 2 weeks.

[1] = tested on: acute viral nasopharyngitis; experiment: Treatment of persons with acute viral nasopharyngitis with the Medicine (Examples 28-32); conditions: Example 30: prior treatment, no dose given

For `COc1ccc2c3c1O[C@H]1[C@@H](O)C=C[C@H]4[C@@H](C2)N(C)CC[C@@]341` [codeine], the “patient-reported outcome of previously tried treatments for bronchitis” value (bronchitis) was “little success”.
With `COc1cc2c(c(OC)c1OC)-c1ccc(OC)c(=O)cc1[C@@H](NC(C)=O)CC2` [colchicines, colchicine] the “patient-reported outcome of previously tried treatments” value (gouty arthritis) was “without significant success”.
For `N[C@H]1C(O)O[C@H](CO)[C@@H](O)[C@@H]1O` (some centres unmarked) [glucosamine], the “patient-reported outcome of previously tried treatments for osteoarthritis” value (osteoarthritis) was “without effective relief”.
With `C[C@]12CCC(=O)C=C1CC[C@@H]1[C@@H]2[C@@H](O)C[C@@]2(C)[C@H]1CC[C@]2(O)C(=O)CO` [hydrocortisone] the “patient-reported outcome of previously tried treatments for itching” value (itching; Example 42: prior treatment) was “without success”, the “patient-reported outcome of previously tried treatments for itching” value (itching; Example 43: prior treatment) was “little success” and the “patient-reported outcome of previously tried treatments for vaginitis” value (vaginitis; Example 48: prior treatment) was “without significant success”. The “patient-reported outcome of previously tried treatments for vaginitis” value (vaginitis; Example 50: prior treatment) was “to no avail”.
In the case of `CC(C)Cc1ccc(C(C)C(=O)O)cc1` (centres unmarked) [ibuprofen], the “patient-reported outcome of previously tried treatment for gouty arthritis” value (gouty arthritis; Example 10: prior treatment) is reported as “no significant success” and the “patient-reported outcome of previously tried treatments” value (gouty arthritis) is reported as “without significant success”.
In the case of `CC(=O)N1CCN(c2ccc(OCC3COC(Cn4ccnc4)(c4ccc(Cl)cc4Cl)O3)cc2)CC1` (centres unmarked) [ketoconazole], the “patient-reported outcome of previously tried treatments for dandruff” value (shortened to “patient-reported outcome … for dandruff”) (dandruff) is reported as “dandruff was still visible on their scalp”.
With `CC(=O)Nc1ccc(O)cc1` [paracetamol] the “patient-reported outcome of previously tried treatments for acute viral nasopharyngitis” value [1] was “little success”.
`CN[C@@H](C)[C@@H](O)c1ccccc1` [pseudoephedrine] was tested, and the “patient-reported outcome of previously tried treatments for acute viral nasopharyngitis” value [1] was “little success”.
`S=[Se]=S` [selenium sulfide] was tested, and the “patient-reported outcome … for dandruff” value (dandruff) was “dandruff was still visible on their scalp”.
In the case of zinc pyrithione, the “patient-reported outcome … for dandruff” value (dandruff) is reported as “dandruff was still visible on their scalp”.
